The source of these data is patent publication US5814627A, “3, 5-disubstituted and 3, 4, 5-trisubstituted 2-isoxazolines and isoxazoles, process for their preparation and their use as pharmaceuticals” (Hoechst Aktienegesellschaft, priority 1994, dated 1998).

Structures can show the parent of a compound that is named as a salt. Where two headings read alike, the source gives them in different places.

The subject of experiment [1] is adjuvant/arthritis model. Description: Test 6: antiarthritic effect in the adjuvant/arthritis model. Format: in vivo, rat (Wistar-Lewis). The following applies: for inhibition in vivo at 50 mg/kg / inhibition in vivo at 25 mg/kg / inhibition in vivo at 20 mg/kg: Rattus norvegicus, po, 408 h, read-out: Test 6 Paw volume (% inhibition); for inhibition in vivo at 20 mg/kg: 20 mg/kg orally.

The subject of experiment [2] is cyclooxygenase-dependent thrombocyte aggregation. As to the kind of experiment: Test 5: Cyclooxygenase-dependent thrombocyte aggregation. The experiment is classed as cell-based, human. The following applies: arachidonic acid as inducer; for activity at 25 µM / activity at 100 µM: Homo sapiens, read-out: Test 5 residual activity (cyclooxygenase-dependent thrombocyte aggregation), percent of control. The procedure:
TEST 5. Cyclooxygenase-dependent thrombocyte aggregation
Platelet-rich plasma (PRP): to inhibit coagulation, human blood was treated with 1/10 of its volume of 3.8% sodium citrate solution. Centrifugation then takes place at 105×g for 20 minutes and the supernatant (PRP) is removed. 200 μl of PRP were preincubated, at 37° C. for 10 minutes, together with 30 μl of test substance in a PAP4 aggregometer (BioData). The test substance was dissolved in organic solvent and diluted 1:30 with buffer (50 mM TisHCl, pH 8.0; 90 mM NaCl). Aggregation is triggered with 20 μl of inducer. During the aggregation, stirring takes place at 800 rpm. Arachidonic acid, 5 mg/ml, was used as the inducer.
The values in the table show the concentration of the test substance which was employed in μM and, besides this, the residual activity measured in percent based on the control, which was set to be 100%. The interleukin is additionally indicated in test 4.

The subject of experiment [3] is polymorphonuclear leucocytes (PMNL). Description: Test 1: Release of proteolytic activity from human PMNL. The experiment is classed as cell-based. The following applies: for activity at 10 µM / activity at 100 µM / activity at 1 µM: Homo sapiens, PMNL, read-out: Test 1 residual activity (release of proteolytic activity), percent of control; for Test 1 residual activity (release of proteolytic activity), percent of control: hydrochloride. The procedure:
Isolation of polymorphonuclear leucocytes (PMNL) from human peripheral blood for carrying out tests 1 and 2 10 ml of human blood were diluted with 10 ml of HBSS (Serva) and underlaid with 15 ml of Lymphoprep (Dr. Molter GmbH, Heidelberg). […] A white ring, composed of mononuclear cells, is located between these two phases. The lowermost phase is composed of erythrocytes which are covered with a white layer of PMNL. The uppermost phase, and also the Lymphoprep and the white ring, were carefully removed using a syringe. The remaining sediment was carefully resuspended in 15 ml of 3% dextran in PM16 (mw: 485,000, Sigma, Deisenhofen). The suspension was then left to stand at room temperature for one hour. During this time, the erythrocytes sedimented while the PMNL remained in the supernatant. The supernatant was removed, diluted with an approximately equal volume of PM16, and centrifuged for 15 minutes at 400×g. Should the PMNL sediment be heavily contaminated with erythrocytes, it is necessary to carry out a hypotonic lysis. To do this, the sediment was resuspended in 750 μl of water. After exactly 15 seconds, the suspension was diluted with approximately 7 ml of PM16 and centrifuged for 10 minutes at 400×g. If necessary, this lysis was repeated once more. Otherwise, the PMNL sediment was resuspended in a suitable medium. 250 μl of PMNL (5·10^6 cells/ml of PBS containing 7.5 mM glucose) were incubated at 37° C. for 20 minutes with 1 μl of test substance. 1 μl of cytochalasin B (5 μg/ml of test mixture) was then added and the mixture was incubated at 37° C. for a further 5 minutes. Following the addition of 1 μl of […] necrosis factor alpha (TNF; 30 ng/ml of test mixture), the incubation was continued for 5 minutes. The release was started using 1 μl of fMLP (10 nmol/l of test mixture). After 60 minutes at 37° C., the reaction was terminated by cooling the samples down to 0° C. The samples were then centrifuged, and the supernatant was removed and frozen down. Cytochalasin B and fMLP were dissolved in DMSO and TNF was diluted with buffer. 50 μl of the supernatant were mixed with 175 μl of buffer (100 mM HEPES, pH 7.5; 500 mM NaCl) in a 96-well microtiter plate. Following the addition of 25 μl of substrate (methoxysuccinyl-[…]-nitroanilide), the extinction of each well was measured at 405 nm after 0, 5, 10, 15, 30 and 60 minutes. […] The interleukin is additionally indicated in test 4.

The test system of experiment [4] is tumor cell line 20-10-5S (hybridoma cell line). Description: Test 8: Inhibition of tumor cell proliferation. Format: cell-based. The following applies: 48 h + 16 h tritiated thymidine incorporation; 20-10-5S cells. (Dividing cells build labelled thymidine or BrdU into new DNA.)
Description: The tumor cell line 20-10-5S (hybridoma cell line, supplied by ATCC (American Type Culture Collection)), which produces an antibody against mouse T cells) was used for determining the antiproliferative property of test substances. The cells were cultured, at 37° C. and 5% C2, under serum-free conditions in CG medium (cell-growth medium=Iscove-ATL (+albumin+transferrin+lipids); from Vitromex, Vilshofen). Only cells which were in the logarithmic phase of growth were used for the test mixture. The test substances were pipetted in various concentrations (from 1 to 50 μM), together with 4×10^3 20-10-5S cells, into round-bottomedmicrotiter plates (total volume with medium, 200 μl). After an incubation time of 48 h (37° C. and 5% CO2), 25 μl of tritiated thymidine (=0.25 μCi/test mixture, specific activity, 23 Ci/mM) were added to the plates. During the subsequent 16 h, the radioactively labeled thymidine was incorporated into the DNA of the growing cells. The samples were filtered off with suction on glass fiber filters and the incorporated radioactivity was measured using a β counter (Beta Plate System 1205 from Wallac).
Where [5] appears, read: 50 mg/kg orally, daily for 17 days, rat.
The mark [6] stands for this setting: 25 mg/kg orally, daily for 17 days, rat.

Regarding `CC(=O)O[C@@H](C)[C@@H]1CC(c2cc(C(C)(C)C)c(O)c(C(C)(C)C)c2)=NO1` (relative stereo) [Example 22, 1-(3-(4-Hydroxy-3,5-di-tert-butylphenyl)-2-isoxazolin-5-yl)ethyl acetate], the inhibition in vivo at 50 mg/kg in experiment [1] (setting [5]) is 74%.
Usually IC50 stands for the concentration that gives 50% inhibition. Consider `C[C@@H](OC(=O)CN)[C@@H]1CC(c2cc(C(C)(C)C)c(O)c(C(C)(C)C)c2)=NO1` (relative stereo) [Example 77, Glycine-1-(3-(4-hydroxy-3,5-di-tert-butylphenyl)-2-isoxazoline-5-yl)ethyl ester hydrochloride], for which the activity at 25 µM in experiment [2] (25 μM) was determined as 100%. Also, the activity at 10 µM in experiment [3] (10 μM) is 74%. Besides, the activity at 100 µM in experiment [3] was 30%. Besides, the inhibition in vivo at 50 mg/kg in experiment [1] (setting [5]) is 82%. In experiment [4], the IC50 worked out at 20 µM.
As for `CCCCCCCCCCCCCCCC(=O)O[C@H](C)[C@@H]1CC(c2cc(C(C)(C)C)c(O)c(C(C)(C)C)c2)=NO1` (relative stereo) [Example 81, 1-(3-(4-Hydroxy-3,5-di-tert-butylphenyl)-2-isoxazolin-5-yl)ethyl hexadecanoate (erythro isomer)], the activity at 100 µM in experiment [2] worked out at 100%. For the same compound, in experiment [1] (setting [5]), the inhibition in vivo at 50 mg/kg stood at 67%.
For the compound `CC(=O)CC(=O)O[C@H](C)[C@@H]1CC(c2cc(C(C)(C)C)c(O)c(C(C)(C)C)c2)=NO1` (relative stereo) [Example 84, 1-(3-(4-Hydroxy-3,5-di-tert-butylphenyl)-2-isoxazolin-5-yl)ethyl 3-oxobutyrate], the inhibition in vivo at 25 mg/kg in experiment [1] (setting [6]) was determined as 49%.
In the case of `C[C@@H](OC(=O)c1ccc(CN2CCOCC2)cc1)[C@@H]1CC(c2cc(C(C)(C)C)c(O)c(C(C)(C)C)c2)=NO1` (relative stereo) [Example 86, 1-(3-(4-Hydroxy-3,5-di-tert-butylphenyl)-2-isoxazolin-5-yl)ethyl 4-(4-morpholino)methylbenzoate hydrochloride], in experiment [1] (daily for 17 days, rat), the inhibition in vivo at 20 mg/kg came out at 70%. Moreover, the IC50 in experiment [4] is under 5 µM.
Regarding `C[C@H](OC(=O)c1ccc(CN2CCOCC2)cc1)[C@@H]1CC(c2cc(C(C)(C)C)c(O)c(C(C)(C)C)c2)=NO1` (relative stereo) [Example 87, 1-(3-(4-Hydroxy-3,5-di-tert-butylphenyl)-2-isoxazolin-5-yl)ethyl 4-(4-morpholino)methylbenzoate hydrochloride], in experiment [1] (daily for 17 days, rat), the inhibition in vivo at 20 mg/kg turned out to be 50%. Also, the IC50 in experiment [4] was under 5 µM.
As to `CC(C)(C)c1cc(C2=NO[C@H]([C@H](O)CO)C2)cc(C(C)(C)C)c1O` (relative stereo) [Example 89, 3-(3,5-Di-tert-butyl-4-hydroxyphenyl)-5-(1,2-dihydroxyethyl)-2-isoxazoline,rac. erythro isomer], the inhibition in vivo at 50 mg/kg in experiment [1] (setting [5]) was 36%. The IC50 in experiment [4] came out at 20 µM.
Take `CC(C)(C)c1cc(C2=NO[C@H]([C@@H](O)CO)C2)cc(C(C)(C)C)c1O` (relative stereo) [Example 90, 3-(3,5-Di-tert-butyl-4-hydroxyphenyl)-5-(1,2-dihydroxyethyl)-2-isoxazoline,rac. threo isomer]: in experiment [1] (setting [5]), the inhibition in vivo at 50 mg/kg came to 36%. Also, the IC50 in experiment [4] worked out at 30 µM.
`CC(OC(=O)[C@@H](N)Cc1ccccc1)c1cc(-c2cc(C(C)(C)C)c(O)c(C(C)(C)C)c2)no1` (single isomer, unassigned) [Example 71, L-Phenylalanine-1-(3-(4-hydroxy-3,5-di-tert-butylphenyl)isoxazol-5-yl)ethylester hydrochloride]: the activity at 25 µM in experiment [2] (25 μM) came to 97%. Further, in experiment [3] (1 μM), the activity at 1 µM is 79%. Besides, the activity at 10 µM in experiment [3] (10 μM) came out at 42%. Further, in experiment [1] (setting [6]), the inhibition in vivo at 25 mg/kg came to 66%. The IC50 in experiment [4] was in the range of 5 to 10 µM.
Take `CC(OC(=O)[C@@H](N)Cc1ccccc1)c1cc(-c2cc(C(C)(C)C)c(O)c(C(C)(C)C)c2)no1.Cl` (single isomer, unassigned) [Example 72, L-Phenylalanine-1-(3-(4-hydroxy-3,5-di-tert-butylphenyl)isoxazol-5-yl)ethylester hydrochloride]: the “Test 5 residual activity (cyclooxygenase-dependent thrombocyte aggregation), percent of control” value in experiment [2] (25 μM, hydrochloride) is recorded as 100%. Further, the “Test 1 residual activity (release of proteolytic activity), percent of control” value in experiment [3] (1 μM) was 82%; in experiment [3] (10 μM), 51%. In experiment [1] (25 mg/kg orally, daily for 17 days, rat, hydrochloride), the “Test 6 Paw volume (% inhibition)” value stood at 60%. For the same compound, the IC50 in experiment [4] fell in the range of 5 to 10 µM.
With `CC(OC(=O)[C@@H](N)Cc1ccccc1)C1CC(c2cc(C(C)(C)C)c(O)c(C(C)(C)C)c2)=NO1` (single isomer, unassigned) [Example 74, L-Phenylalanine-1-(3-(4-hydroxy-3,5-di-tert-butylphenyl)isoxazolin-5-yl)ethyl ester hydrochloride], the activity at 25 µM in experiment [2] (25 μM) was 95%. The activity at 10 µM in experiment [3] (10 μM) stood at 64%. Moreover, the inhibition in vivo at 25 mg/kg in experiment [1] (setting [6]) was determined as 60%. Also, in experiment [4], the IC50 lay within 5 to 10 µM.
Consider `CC(C)(C)c1cc(C2=NOC3(CC3)C2)cc(C(C)(C)C)c1O` [Example 12], for which, in experiment [1] (setting [5]), the inhibition in vivo at 50 mg/kg was 82%. In addition, in experiment [4], the IC50 was 10 µM.
Take `CC(O)CC1CC(c2cc(C(C)(C)C)c(O)c(C(C)(C)C)c2)=NO1` (stereo not shown) [Example 15]: in experiment [1] (setting [5]), the inhibition in vivo at 50 mg/kg was found to be 60%. Also, in experiment [4], the IC50 fell in the range of 8 to 15 µM.
Consider `CC(C)(C)c1cc(-c2cc(CCCCO)on2)cc(C(C)(C)C)c1O` [Example 27], for which the activity at 100 µM in experiment [2] was 97%. In addition, the inhibition in vivo at 50 mg/kg in experiment [1] (setting [5]) worked out at 71%. In addition, the IC50 in experiment [4] is under 5 µM.
For the compound `CC(O)Cc1cc(-c2cc(C(C)(C)C)c(O)c(C(C)(C)C)c2)no1` (stereo not shown) [Example 30], the inhibition in vivo at 50 mg/kg in experiment [1] (setting [5]) was found to be 63%. In experiment [4], the IC50 is 5 to 10 µM.
For `CC(C)(C)c1cc(-c2noc(CO)c2CO)cc(C(C)(C)C)c1O` [Example 32], the activity at 1 µM in experiment [3] (1 μM) was found to be 84%. In addition, the activity at 10 µM in experiment [3] (10 μM) was determined as 72%. Further, in experiment [3], the activity at 100 µM came out at 34%.
As for `CC(C)(C)c1cc(-c2cc(CNC(=O)[C@@H](N)Cc3ccccc3)on2)cc(C(C)(C)C)c1O` [Example 55, L-Phenylalanyl-N-(3-(4-hydroxy-3,5-di-tert-butylphenyl)-isoxazol-5-ylmethyl)amide hydrochloride], the inhibition in vivo at 50 mg/kg in experiment [1] is 47%. For the same compound, in experiment [4], the IC50 was under 5 µM.
On to `CC(C)(C)c1cc(-c2cc(C=O)on2)cc(C(C)(C)C)c1O` [Example 66], for which the inhibition in vivo at 25 mg/kg in experiment [1] (setting [6]) came to 59%. Also, the IC50 in experiment [4] is under 5 µM.
As for `CC(C)(C)c1cc(C2=NOC3(CCC3)C2)cc(C(C)(C)C)c1O` [Example 67], in experiment [1] (setting [5]), the inhibition in vivo at 50 mg/kg came out at 53%. In experiment [4], the IC50 is under 5 µM.
As to `CC(C)(C)c1cc(C2=NOC(C(C)(C)O)C2)cc(C(C)(C)C)c1O` (stereo not shown) [Example 69], in experiment [1] (setting [5]), the inhibition in vivo at 50 mg/kg stood at 83%. The IC50 in experiment [4] lay within 5 to 10 µM.
Take `CC(C)(C)c1cc(-c2cc(CNC(=O)[C@H](O)[C@@H](O)C(=O)O)on2)cc(C(C)(C)C)c1O` [Example 83]: the inhibition in vivo at 50 mg/kg in experiment [1] (setting [5]) is 39%.
